Values quoted from earlier work, collected in patent US8278451B2, “Pseudoazulenyl nitrones” (The Florida International University Board of Trustees, priority 2006, dated 2012).

How the values were obtained:
[1] = test system: LPS-induced organ dysfunction and cytokine secretion; conditions: rats, LPS administered
[2] = test system: age-related changes in cognitive performance; conditions: aged rats, chronic treatment
lifespan = conditions: aged animal model, daily intraperitoneal injection, male and female
[3] = test system: human diploid fibroblast cells; conditions: human diploid fibroblast cells in culture
[4] = aqueous solution at pH 7 and 20° C.

Row | one-electron oxidative potential (vs. NHE) [4] | SMILES | LPS-induced leukopenia [1] | LPS-induced pulmonary edema [1] | LPS-induced thrombocytopenia [1] | organ dysfunction and cytokine secretion induced by LPS [1] | age-related changes in cognitive performance [2] | lifespan (lifespan) | onset of senescence [3]
1 | – | CC1(C)Cc2ccccc2C=[N+]1[O-] [MDL 101,002] | failed to prevent leukopenia | prevented pulmonary edema | partially reduced thrombocytopenia | reduces organ dysfunction and cytokine secretion | – | – | –
2 | – | CC(C)(C)[N+]([O-])=Cc1ccccc1 [PBN, alpha-phenyl-N-tert-butylnitrone] | – | – | – | – | benefit (i.e., improve) age-related changes in cognitive performance | remarkable extension of the lifespan | effectively delayed the onset of senescence
3 | 0.48 V | Cc1c(C)c2c(c(C)c1O)CC[C@@](C)(CCC[C@H](C)CCC[C@H](C)CCCC(C)C)O2 [vitamin E, alpha-tocopherol] | – | – | – | – | benefit (i.e., improve) age-related changes in cognitive performance | – | –
